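Five concentrations, 48 hours, 96-well plates. GI50 marks 50% less growth. At the TGI there is no net growth.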
Key:
Assay in all cases: inhibition of tumour cell growth, NCI panel, 48 h
NCI-H460 lung = system: NCI-H460 lung
NCI-H23 lung = system: NCI-H23 lung
UO-31 renal = system: UO-31 renal
CAKI-1 renal = system: CAKI-1 renal
SR leukemia = system: SR leukemia
BT-549 breast = system: BT-549 breast
SF-268 CNS = system: SF-268 CNS
RPMI-8226 leukemia = system: RPMI-8226 leukemia
NCI/ADR-RES ovarian = system: NCI/ADR-RES ovarian
A549 NSCLC = system: A549 NSCLC
T-47D breast = system: T-47D breast
MCF7 breast = system: MCF7 breast
HL-60(TB) leukemia = system: HL-60(TB) leukemia
SK-MEL-2 melanoma = system: SK-MEL-2 melanoma
MALME-3M melanoma = system: MALME-3M melanoma
HCC-2998 colon = system: HCC-2998 colon
UACC-62 melanoma = system: UACC-62 melanoma
CCRF-CEM leukemia = system: CCRF-CEM leukemia
A498 renal = system: A498 renal
MOLT-4 leukemia = system: MOLT-4 leukemia
HT29 colon = system: HT29 colon
EKVX NSCLC = system: EKVX NSCLC
HCT-116 colon = system: HCT-116 colon
SK-MEL-28 melanoma = system: SK-MEL-28 melanoma
RXF 393 renal = system: RXF 393 renal
ACHN renal = system: ACHN renal
SNB-75 CNS = system: SNB-75 CNS
LOX IMVI melanoma = system: LOX IMVI melanoma
NCI-H226 lung = system: NCI-H226 lung
MDA-MB-231 breast = system: MDA-MB-231 breast
PC-3 prostate = system: PC-3 prostate
SK-MEL-5 melanoma = system: SK-MEL-5 melanoma
SF-295 CNS = system: SF-295 CNS
HS 578T breast = system: HS 578T breast
U251 CNS = system: U251 CNS
IGROV1 ovarian = system: IGROV1 ovarian
UACC-257 melanoma = system: UACC-257 melanoma
HCT-15 colon = system: HCT-15 colon
TK-10 renal = system: TK-10 renal
OVCAR-8 ovarian = system: OVCAR-8 ovarian
DU-145 prostate = system: DU-145 prostate
KM12 colon = system: KM12 colon
SNB-19 CNS = system: SNB-19 CNS
K-562 leukemia = system: K-562 leukemia
786-0 renal = system: 786-0 renal
NCI-H522 lung = system: NCI-H522 lung
SW-620 colon = system: SW-620 colon
SN12C renal = system: SN12C renal
MDA-MB-435 = system: MDA-MB-435
OVCAR-3 ovarian = system: OVCAR-3 ovarian
OVCAR-4 ovarian = system: OVCAR-4 ovarian
SK-OV-3 ovarian = system: SK-OV-3 ovarian
HOP-62 NSCLC = system: HOP-62 NSCLC
SF-539 CNS = system: SF-539 CNS
OVCAR-5 ovarian = system: OVCAR-5 ovarian
M14 melanoma = system: M14 melanoma
COLO 205 colon = system: COLO 205 colon

SMILES: NS(=O)(=O)OC[C@@H]1C[C@@H](n2ccc3c(NC4CCc5ccccc54)ncnc32)C[C@@H]1O (stereo partly drawn)
- GI50 (NCI-H460 lung): 0.341 µM
- TGI (NCI-H460 lung): 23.9 µM
- GI50 (NCI-H23 lung): 1.34 µM
- TGI (NCI-H23 lung): 46.1 µM
- GI50 (UO-31 renal): 11 µM
- TGI (UO-31 renal): > 100 µM
- GI50 (CAKI-1 renal): 0.52 µM
- TGI (CAKI-1 renal): > 100 µM
- GI50 (SR leukemia): 0.0827 µM
- TGI (SR leukemia): 29.5 µM
- GI50 (BT-549 breast): 22.8 µM
- TGI (BT-549 breast): > 95.7 µM
- GI50 (SF-268 CNS): 0.548 µM
- TGI (SF-268 CNS): > 100 µM
- GI50 (RPMI-8226 leukemia): 5.41 µM
- TGI (RPMI-8226 leukemia): 27.6 µM
- GI50 (NCI/ADR-RES ovarian): 68.8 µM
- TGI (NCI/ADR-RES ovarian): > 100 µM
- GI50 (A549 NSCLC): 0.797 µM
- TGI (A549 NSCLC): 47.7 µM
- GI50 (T-47D breast): 0.0607 µM
- TGI (T-47D breast): 63.6 µM
- GI50 (MCF7 breast): 0.0386 µM
- TGI (MCF7 breast): > 100 µM
- GI50 (HL-60(TB) leukemia): 0.214 µM
- TGI (HL-60(TB) leukemia): 14 µM
- GI50 (SK-MEL-2 melanoma): 0.74 µM
- TGI (SK-MEL-2 melanoma): 21 µM
- GI50 (MALME-3M melanoma): 21.9 µM
- TGI (MALME-3M melanoma): > 92.8 µM
- GI50 (HCC-2998 colon): 2.97 µM
- TGI (HCC-2998 colon): 18.2 µM
- GI50 (UACC-62 melanoma): 0.0856 µM
- TGI (UACC-62 melanoma): 20.6 µM
- GI50 (CCRF-CEM leukemia): 0.324 µM
- TGI (CCRF-CEM leukemia): 55.9 µM
- GI50 (A498 renal): 0.123 µM
- TGI (A498 renal): 2.27 µM
- GI50 (MOLT-4 leukemia): 0.37 µM
- TGI (MOLT-4 leukemia): 11.1 µM
- GI50 (HT29 colon): 0.566 µM
- TGI (HT29 colon): 29.2 µM
- GI50 (EKVX NSCLC): 21.4 µM
- TGI (EKVX NSCLC): > 100 µM
- GI50 (HCT-116 colon): 0.103 µM
- TGI (HCT-116 colon): 5.46 µM
- GI50 (SK-MEL-28 melanoma): 3.94 µM
- TGI (SK-MEL-28 melanoma): > 100 µM
- GI50 (RXF 393 renal): 11.2 µM
- TGI (RXF 393 renal): 37.1 µM
- GI50 (ACHN renal): 0.332 µM
- TGI (ACHN renal): 1.8 µM
- GI50 (SNB-75 CNS): 20.8 µM
- TGI (SNB-75 CNS): > 100 µM
- GI50 (LOX IMVI melanoma): 0.0673 µM
- TGI (LOX IMVI melanoma): 0.436 µM
- GI50 (NCI-H226 lung): 0.362 µM
- GI50 (MDA-MB-231 breast): 10.1 µM
- TGI (MDA-MB-231 breast): > 100 µM
- GI50 (PC-3 prostate): 17 µM
- TGI (PC-3 prostate): > 100 µM
- GI50 (SK-MEL-5 melanoma): 0.305 µM
- TGI (SK-MEL-5 melanoma): 17.2 µM
- GI50 (SF-295 CNS): 0.337 µM
- TGI (SF-295 CNS): 4.52 µM
- GI50 (HS 578T breast): 16.8 µM
- TGI (HS 578T breast): 61.3 µM
- GI50 (U251 CNS): 0.559 µM
- TGI (U251 CNS): 36.9 µM
- GI50 (IGROV1 ovarian): 7.83 µM
- TGI (IGROV1 ovarian): > 100 µM
- GI50 (UACC-257 melanoma): 1.02 µM
- TGI (UACC-257 melanoma): > 90.7 µM
- GI50 (HCT-15 colon): 2.59 µM
- TGI (HCT-15 colon): 70.1 µM
- GI50 (TK-10 renal): 14.1 µM
- TGI (TK-10 renal): > 100 µM
- GI50 (OVCAR-8 ovarian): 0.823 µM
- TGI (OVCAR-8 ovarian): 36.7 µM
- GI50 (DU-145 prostate): 0.384 µM
- TGI (DU-145 prostate): > 100 µM
- GI50 (KM12 colon): 1.13 µM
- TGI (KM12 colon): 49.1 µM
- GI50 (SNB-19 CNS): 12.5 µM
- TGI (SNB-19 CNS): > 100 µM
- GI50 (K-562 leukemia): 0.405 µM
- TGI (K-562 leukemia): 32.3 µM
- GI50 (786-0 renal): 0.671 µM
- TGI (786-0 renal): 29.7 µM
- GI50 (NCI-H522 lung): 3.31 µM
- TGI (NCI-H522 lung): 27.3 µM
- GI50 (SW-620 colon): 3.34 µM
- TGI (SW-620 colon): > 77.6 µM
- GI50 (SN12C renal): 0.614 µM
- TGI (SN12C renal): > 100 µM
- GI50 (MDA-MB-435): 5.75 µM
- TGI (MDA-MB-435): > 100 µM
- GI50 (OVCAR-3 ovarian): 2.93 µM
- TGI (OVCAR-3 ovarian): 33.7 µM
- GI50 (OVCAR-4 ovarian): 15.7 µM
- TGI (OVCAR-4 ovarian): > 100 µM
- GI50 (SK-OV-3 ovarian): 9.36 µM
- TGI (SK-OV-3 ovarian): > 93.9 µM
- GI50 (HOP-62 NSCLC): 3.23 µM
- TGI (HOP-62 NSCLC): > 46.9 µM
- GI50 (SF-539 CNS): 1.28 µM
- TGI (SF-539 CNS): 20.3 µM
- GI50 (OVCAR-5 ovarian): 16.4 µM
- TGI (OVCAR-5 ovarian): 96.9 µM
- GI50 (M14 melanoma): 0.712 µM
- TGI (M14 melanoma): > 100 µM
- GI50 (COLO 205 colon): 0.524 µM
- TGI (COLO 205 colon): > 51.2 µM
